Measured values from PMC2362731, “Phase I study of Carzelesin (U-80,244) given (4-weekly) by intravenous bolus schedule” (British Journal of Cancer, 1999).

Tested on: patients with advanced solid tumours
Test: Phase I toxicity of Carzelesin, 4-weekly 10 min IV infusion (NCI-CTC grading)
Format: in vivo, human
Conditions: for No. of courses with delayed recovery (no. of pts): delayed more than 3 days
Protocol: Carzelesin is a cyclopropylpyrroloindole analogue which acts as a DNA-sequence-specific alkylating agent. In this phase I study, Carzelesin was given as a 4-weekly 10 min IV infusion to 51 patients with advanced solid tumours. Patients received a median of two courses (range 1–5) at one of nine dose levels: 24, 48, 96, 130, 150, 170, 210, 250 and 300 μg m^−2. According to NCI-CTC criteria, non-haematological toxicities (grade 1/2) included fever, nausea and vomiting, mucositis and anorexia, none of which was clearly dose related. The dose-limiting toxicity was haematological and consisted mainly of neutropenia and to a lesser extent thrombocytopenia. From the dose level 150 μg m^−2, the haematological toxicity (particularly thrombocytopenia) was delayed in onset, prolonged and cumulative in some patients. In several courses, double WBC nadirs occurred. The maximum tolerated dose for a single course was 300 μg m^−2. From the dose level 170 μg m^−2, the intended dose intensity could not be delivered to most patients receiving > 2 courses owing to cumulative haematological toxicity. The dose level with the best dose intensity for multiple courses was 150 μg m^−2. The pharmacokinetics of Carzelesin and its metabolites (U-76,073; U-76,074) have been established in 31 patients during the first course of treatment using a HPLC method. […] The concentration of U-76,074 (active metabolite) extended above the lower limit of quantitation (1 ng ml^−1) for short periods of time and only at the higher dose levels. There was no relationship between neutropenia and the AUC of the prodrug Carzelesin, but the presence of detectable plasma levels of the active metabolite U-76,074 was usually associated with a substantial decrease in ANC values. © 1999 Cancer Research Campaign
Carzelesin (U-80,244, Figure 1A) is a cyclopropylpyrroloindole (CPI) prodrug analogue of CC-1065. […] CPI drugs are a class of compounds with unique DNA interactive properties. These agents fit into the minor groove region of DNA, and the CPI function in the molecule mediates a covalent binding to the N3 position of adenine in A-T rich regions, thus forming DNA adducts in a sequence selective fashion (Hurley et al, 1984; Reynolds et al, 1985). Three new CPIs have now been developed. […] Bizelesin differs from the classical CPI drugs in that it contains two chloromethyl functions, which are both converted (via intramolecular rearrangements) to the CPI alkyl- ating species that interact with DNA. Consequently, this agent is capable of forming DNA interstrand cross-links (Lee et al, 1991). […] Therefore, efforts were directed to modu- late the alkylation rate by the preparation of CPI prodrugs that would require chemical or enzymatic conversion. The activation of Carzelesin is a two-step reaction with hydrolysis of the phenyl- urethane substituent to form the intermediate compound U-76,073, followed by ring closure to form the active product U-76,074 (Figure 1B). […] This higher efficacy may be related to the pharmacologic features of the compound. […] Phase I study of Carzelesin (U-80,244) given (4-weekly) by intravenous bolus schedule A Awada1, CJA Punt2, MJ Piccart1, O Van Tellingen3, L Van Manen2, J Kerger1, Y Groot4, J Wanders4, J Verweij5 and DJTh Wagener2 1Institut Jules Bordet, Bd de Waterloo 125, 1000 Brussels, Belgium; 2University Hospital, Geert Grooteplein 8, Box 9101, 6500 HB Nijmegen, The Netherlands; 3The Netherlands Cancer Institute (Antoni van Leeuwenhoek Huis), Plesmanlaan 121, 1066 CX Amsterdam, The Netherlands; 4European Organization for Research and Treatment of Cancer - New Drug Development Office, PO Box 7057, Amsterdam, The Netherlands; 5Rotterdam Cancer Institute, Groene Hilledijk 301, 3075 EA Rotterdam, The Netherlands; on behalf of the EORTC Early Clinical Studies Group and EORTC NDDO Summary Carzelesin is a cyclopropylpyrroloindole analogue which acts as a DNA-sequence-specific alkylating agent. […]

CCN(CC)c1ccc2cc(C(=O)Nc3ccc4[nH]c(C(=O)N5C[C@@H](CCl)c6c5cc(OC(=O)Nc5ccccc5)c5[nH]cc(C)c65)cc4c3)oc2c1 [Carzelesin]
dose level with the best dose intensity for multiple courses (4-weekly 10 min IV infusion): 150 μg m^−2 | maximum tolerated dose for a single course (4-weekly 10 min IV infusion): 300 μg m^−2 | No. of reduced courses due to haematological toxicity (Table 2, dose level 24 μg m-2): 0 | No. of courses with delayed recovery (no. of pts) (Table 2, dose level 24 μg m-2): 0 | No. of reduced courses due to haematological toxicity (Table 2, dose level 48 μg m-2): 0 | No. of courses with delayed recovery (no. of pts) (Table 2, dose level 48 μg m-2): 0 | No. of reduced courses due to haematological toxicity (Table 2, dose level 96 μg m-2): 0 | No. of courses with delayed recovery (no. of pts) (Table 2, dose level 96 μg m-2): 0 | No. of reduced courses due to haematological toxicity (Table 2, dose level 130 μg m-2): 0 | No. of courses with delayed recovery (no. of pts) (Table 2, dose level 130 μg m-2): 0 | No. of courses with delayed recovery (no. of pts) (Table 2, dose level 150 μg m-2): 3 (1) | No. of reduced courses due to haematological toxicity (Table 2, dose level 150 μg m-2, reduced to 130, 1 patient): 3 | No. of reduced courses due to haematological toxicity (Table 2, dose level 170 μg m-2): 0 | No. of courses with delayed recovery (no. of pts) (Table 2, dose level 170 μg m-2): 4 (4) | No. of courses with delayed recovery (no. of pts) (Table 2, dose level 210 μg m-2): 5 (5) | No. of reduced courses due to haematological toxicity (Table 2, dose level 210 μg m-2, reduced to 96, 105, 150, 4 patients): 6 | No. of courses with delayed recovery (no. of pts) (Table 2, dose level 250 μg m-2): 3 (3) | No. of reduced courses due to haematological toxicity (Table 2, dose level 250 μg m-2, reduced to 130, 170, 3 patients): 6 | No. of courses with delayed recovery (no. of pts) (Table 2, dose level 300 μg m-2): 2 (2) | No. of reduced courses due to haematological toxicity (Table 2, dose level 300 μg m-2, reduced to 150, 2 patients): 2 | Neutropenia grade 3/4, No. of courses (Table 3, dose level 24 μg m-2): 0 | Neutropenia grade 3/4, No. of patients (worst grade per patient) (Table 3, dose level 24 μg m-2): 0 | Neutropenia grade 3/4, patients following the first course (Table 3, dose level 24 μg m-2): 0 | No. of toxic patients following the first course (Table 3, dose level 24 μg m-2): 0 | Thrombocytopenia grade 3/4, No. of courses (Table 3, dose level 24 μg m-2): 0 | Thrombocytopenia grade 3/4, No. of patients (worst grade per patient) (Table 3, dose level 24 μg m-2): 0 | Thrombocytopenia grade 3/4, patients following the first course (Table 3, dose level 24 μg m-2): 0 | No. of toxic patients/courses (grade 3/4 neutropenia and/or thrombocytopenia) (Table 3, dose level 24 μg m-2, 4/6 evaluable patients/courses): 0 | Neutropenia grade 3/4, No. of courses (Table 3, dose level 48 μg m-2): 0 | Neutropenia grade 3/4, No. of patients (worst grade per patient) (Table 3, dose level 48 μg m-2): 0 | Neutropenia grade 3/4, patients following the first course (Table 3, dose level 48 μg m-2): 0 | No. of toxic patients following the first course (Table 3, dose level 48 μg m-2): 0 | Thrombocytopenia grade 3/4, No. of courses (Table 3, dose level 48 μg m-2): 0 | Thrombocytopenia grade 3/4, No. of patients (worst grade per patient) (Table 3, dose level 48 μg m-2): 0 | Thrombocytopenia grade 3/4, patients following the first course (Table 3, dose level 48 μg m-2): 0 | No. of toxic patients/courses (grade 3/4 neutropenia and/or thrombocytopenia) (Table 3, dose level 48 μg m-2, 3/7 evaluable patients/courses): 0 | Neutropenia grade 3/4, No. of courses (Table 3, dose level 96 μg m-2): 0/1 | Neutropenia grade 3/4, No. of patients (worst grade per patient) (Table 3, dose level 96 μg m-2): 0/1 | Neutropenia grade 3/4, patients following the first course (Table 3, dose level 96 μg m-2): 0/1 | No. of toxic patients following the first course (Table 3, dose level 96 μg m-2): 2 | Thrombocytopenia grade 3/4, No. of courses (Table 3, dose level 96 μg m-2): 1/0 | Thrombocytopenia grade 3/4, No. of patients (worst grade per patient) (Table 3, dose level 96 μg m-2): 1/0 | Thrombocytopenia grade 3/4, patients following the first course (Table 3, dose level 96 μg m-2): 1/0 | No. of toxic patients/courses (grade 3/4 neutropenia and/or thrombocytopenia) (Table 3, dose level 96 μg m-2, 5/8 evaluable patients/courses): 2/2 | Neutropenia grade 3/4, No. of courses (Table 3, dose level 130 μg m-2): 2/0 | Neutropenia grade 3/4, No. of patients (worst grade per patient) (Table 3, dose level 130 μg m-2): 2/0 | Neutropenia grade 3/4, patients following the first course (Table 3, dose level 130 μg m-2): 0 | No. of toxic patients following the first course (Table 3, dose level 130 μg m-2): 0 | Thrombocytopenia grade 3/4, No. of courses (Table 3, dose level 130 μg m-2): 2/1 | Thrombocytopenia grade 3/4, No. of patients (worst grade per patient) (Table 3, dose level 130 μg m-2): 2/1 | Thrombocytopenia grade 3/4, patients following the first course (Table 3, dose level 130 μg m-2): 0 | No. of toxic patients/courses (grade 3/4 neutropenia and/or thrombocytopenia) (Table 3, dose level 130 μg m-2, 5/9 evaluable patients/courses): 3/3 | Neutropenia grade 3/4, No. of courses (Table 3, dose level 150 μg m-2): 2/2 | Neutropenia grade 3/4, No. of patients (worst grade per patient) (Table 3, dose level 150 μg m-2): 1/2 | Neutropenia grade 3/4, patients following the first course (Table 3, dose level 150 μg m-2): 0/1 | No. of toxic patients following the first course (Table 3, dose level 150 μg m-2): 2 | Thrombocytopenia grade 3/4, No. of courses (Table 3, dose level 150 μg m-2): 1/1 | Thrombocytopenia grade 3/4, No. of patients (worst grade per patient) (Table 3, dose level 150 μg m-2): 1/1 | Thrombocytopenia grade 3/4, patients following the first course (Table 3, dose level 150 μg m-2): 1/1 | No. of toxic patients/courses (grade 3/4 neutropenia and/or thrombocytopenia) (Table 3, dose level 150 μg m-2, 6/14 evaluable patients/courses): 4/5 | Neutropenia grade 3/4, No. of courses (Table 3, dose level 170 μg m-2): 1/3 | Neutropenia grade 3/4, No. of patients (worst grade per patient) (Table 3, dose level 170 μg m-2): 1/3 | Neutropenia grade 3/4, patients following the first course (Table 3, dose level 170 μg m-2): 0/2 | No. of toxic patients following the first course (Table 3, dose level 170 μg m-2): 4 | Thrombocytopenia grade 3/4, No. of courses (Table 3, dose level 170 μg m-2): 5/2 | Thrombocytopenia grade 3/4, No. of patients (worst grade per patient) (Table 3, dose level 170 μg m-2): 3/2 | Thrombocytopenia grade 3/4, patients following the first course (Table 3, dose level 170 μg m-2): 3/0 | No. of toxic patients/courses (grade 3/4 neutropenia and/or thrombocytopenia) (Table 3, dose level 170 μg m-2, 9/16 evaluable patients/courses): 6/8 | Neutropenia grade 3/4, No. of courses (Table 3, dose level 210 μg m-2): 3/3 | Neutropenia grade 3/4, No. of patients (worst grade per patient) (Table 3, dose level 210 μg m-2): 2/3 | Neutropenia grade 3/4, patients following the first course (Table 3, dose level 210 μg m-2): 3/1 | No. of toxic patients following the first course (Table 3, dose level 210 μg m-2): 4 | Thrombocytopenia grade 3/4, No. of courses (Table 3, dose level 210 μg m-2): 0/2 | No. of toxic patients/courses (grade 3/4 neutropenia and/or thrombocytopenia) (Table 3, dose level 210 μg m-2, 7/10 evaluable patients/courses): 5/6 | Thrombocytopenia grade 3/4, No. of patients (worst grade per patient) (Table 3, dose level 210 μg m-2, one patient had pre-existing grade 1 thrombocytopenia): 0/2
